Patent US11331364B2, “Use for JNK inhibitor molecules for treatment of various diseases” (Xigen Inflammation Ltd., priority 2014, dated 2022)
Square brackets hold non-standard residues; d marks the D form. Peptide text beside a SMILES is read from it.

Assays:
[1] = test system: established type II collagen arthritis in rats; experiment: Chronic established type II collagen arthritis, daily IV 14 days; format: in vivo, rat
Description: Rat collagen arthritis is an experimental model of polyarthritis that has been widely used for preclinical testing of numerous anti-arthritic agents that are either under preclinical or clinical investigation or are currently used as therapeutics in this disease. […] Animals were terminated on arthritis day 14.

[2] = test system: Endotoxin-Induced Uveitis (EIU) model in rats; experiment: Action duration in endotoxin-induced uveitis (EIU), clinical scoring and PMN cells quantification; format: in vivo, rat
Procedure: […] (18) female Lewis rats (36 eyes) were randomly divided into 6 groups of 3 animals each. EIU was induced by a single footpad injection of 100 µl sterile pyrogen-free saline containing 200 µg of LPS (Lipopolysaccharides from Salmonella typhimurium, Sigma-Aldrich, France)(2 mg/ml).
Animals were treated 48 hours, 1 week, 2 weeks or 4 weeks before EIU induction by intravenous injection of the JNK inhibitor according to SEQ ID NO: 172 (“XG-104”) at a single dose of 1 mg/kg (dose volume 1 ml/kg) in the tail vein. Dexamethasone 2 mg/kg or vehicle (NaCl 0.9%) were injected intravenously immediately before EIU induction.
The effect of the JNK inhibitor according to SEQ ID NO: 172 (“XG-104”) on EIU was evaluated using clinical scoring and PMN cells quantification 24 hours after induction. Ocular examinations were performed by slit lamp at 24 hours i.e. at the clinical peak of the disease in this model. The intensity of clinical ocular inflammation was scored on a scale from 0 to 5 for each eye: • Grade 0: no inflammation, • Grade 1: presence of a minimal iris and conjunctival vasodilatation but without the observation of flare or cells in the anterior chamber (AC), • Grade 2: presence of moderate iris and conjunctival vessel dilation but without evident flare or cells in the AC, • Grade 3: presence of intense iris vessels dilation, flare and less than 10 cells per slit lamp, field in the AC, • Grade 4: presence of more severe clinical signs than grade 3, with more than 10 cells in the AC with or without the formation of a hypopyon, • Grade 5: presence of intense inflammatory reaction, fibrin formation in the AC and total seclusion of the pupil.
For histology, eighteen eyeballs (one per animal) were collected and fixed for 1 h at room temperature in phosphate buffered saline (PBS) containing 4% paraformaldehyde before being rinsed overnight in PBS. The next day, samples were embedded in optimal cutting temperature (OTC) compound (Tissue-Tek®, Sakura Finetek, Zoeterwoude, Netherland) and the optic nerve level using a cryostat (Leica CM 3050S, France) and mounted on super-frost slides for histology. After nuclei staining with DAPI (Sigma-Aldrich, France), sections were mounted in PBS/Glycerol (1/1) and observed by fluorescence photomicroscopy (FXA Microphot, Nikon, USA). Digitized micrographs were obtained usinga digital camera (Spot, BFI Optilas, France). PMN cells identified by the shape of their nuclei stained with DAPI, were quantified on histological sections. The analysis was performed with 2 different sections per eye at the optic nerve head level.
Twenty-four hours after LPS induction, clinical scores for the vehicle-treated rats were 4.6±0.2 (mean±SEM, n=8). Reduction was calculated as (grade in vehicle-treated eye—grade in test item treated eye)/(grade in vehicle-treated eye). A significant reduction (*p<0.05, **p<0.01) in the severity of the ocular inflammation was detected 24 hours after induction and intravenous treatment with the JNK inhibitor according to SEQ ID NO: 172 (“XG-104”) (1 mg/kg) administered 48 hours before EIU induction (mean score: 2.8±0.3), corresponding to a 40% (**) decrease of EIU scores compared with the score observed in vehicle group, 24 hours after induction and intravenous treatment with the JNK inhibitor according to SEQ ID NO: 172 (“XG-104”) (1 mg/kg) administered 1 week before EIU induction (mean score: 3.3±0.3), corresponding to a 27% (*) decrease of EIU scores compared with the score observed in vehicle group, and 24 hours after induction and intravenous treatment with the JNK inhibitor according to SEQ ID NO: 172 (“XG-104”) (1 mg/kg) administered 2 weeks before EIU induction (mean score: 3.0±0.2), corresponding to a 35% (**) decrease of EIU scores compared with the score observed in vehicle group. […]

hJNK3 = hJNK3 (Homo sapiens, UniProt P53779); experiment: hJNK3 | IC50; conditions: read-out: hJNK3 | IC50
Sequence of hJNK3 (P53779 whole entry, looked up): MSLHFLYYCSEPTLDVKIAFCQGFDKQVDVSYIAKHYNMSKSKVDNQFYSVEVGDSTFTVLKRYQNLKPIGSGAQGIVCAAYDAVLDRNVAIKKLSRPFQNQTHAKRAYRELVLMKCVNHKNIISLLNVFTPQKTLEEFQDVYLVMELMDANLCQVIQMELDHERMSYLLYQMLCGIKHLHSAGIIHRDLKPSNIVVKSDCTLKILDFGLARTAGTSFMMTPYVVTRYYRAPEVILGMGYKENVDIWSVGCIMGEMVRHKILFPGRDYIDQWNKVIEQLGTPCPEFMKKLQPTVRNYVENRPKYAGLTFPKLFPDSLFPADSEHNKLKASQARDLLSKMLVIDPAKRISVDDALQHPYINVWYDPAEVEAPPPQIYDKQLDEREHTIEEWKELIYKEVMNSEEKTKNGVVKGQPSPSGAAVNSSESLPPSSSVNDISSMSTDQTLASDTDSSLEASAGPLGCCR

[3] = vs disease controls, IV QD d1-14, Dex 0.05 mg/kg, SEQ ID NO: 172 up to 5 mg/kg
[4] = 1 mg/kg i.v. 1 week before EIU induction
[5] = 1 mg/kg i.v. 2 weeks before EIU induction
[6] = 1 mg/kg i.v. 4 weeks before EIU induction
[7] = 1 mg/kg i.v. 48 hours before EIU induction

Question: What does the source list for `CC(C)C[C@H](NC(=O)[C@H](CC(N)=O)NC(=O)[C@H](CC(C)C)NC(=O)[C@@H](NC(=O)[C@@H](C)NC(=O)[C@@H]1CCCN1C(=O)[C@H](CCCNC(=N)N)NC(=O)[C@@H](CCCCN)NC(=O)[C@@H]1CCCN1C(=O)[C@H](CCCNC(=N)N)NC(=O)[C@@H](CCCNC(=N)N)NC(=O)[C@H](CCCNC(=N)N)NC(=O)[C@H](CCCNC(=N)N)NC(=O)[C@H](CCC(N)=O)NC(=O)[C@@H](CCCNC(=N)N)NC(=O)[C@H](CCCNC(=N)N)NC(=O)[C@H](CCCCN)NC(=O)[C@H](CCCCN)NC(=O)[C@H](N)CCCNC(=N)N)[C@@H](C)O)C(=O)N[C@H](Cc1ccccc1)C(N)=O` [SEQ ID NO: 172, rKKRrQRRrRPkRPaTLNLf] (H-[dR]KKR[dR]QRR[dR]RP[dK]RP[dA]TLNL[dF]-NH2; N-terminus assumed)?
Answer: ankle diameter AUC, reduction toward normal ([1]; 1 mg/kg IV QD d1-14): 27%; inhibition of body weight loss vs disease controls ([1]; 1 mg/kg IV QD d1-14): 21%; ankle diameter AUC, reduction toward normal ([1]; 5 mg/kg IV QD d1-14): 43%; ankle histopathology, reduction of summed scores ([1]; 5 mg/kg IV QD d1-14): 25%; final paw weights, reduction toward normal ([1]; 5 mg/kg IV QD d1-14): 26%; inhibition of body weight loss vs disease controls ([1]; 5 mg/kg IV QD d1-14): 25%; knee histopathology, reduction of summed scores ([1]; 5 mg/kg IV QD d1-14): 73%; daily ankle diameter measurements ([1]; 5 mg/kg IV QD, p<0.05 days 4-12): reduced toward normal; effect on organ weights ([1]; IV QD d1-14): no adverse effect on organ weights; spleen weights relative to body weight [1, 3]: not significantly affected; thymus weights relative to body weight [1, 3]: not significantly affected; clinical score (mean±SEM) [2, 4]: 3.3±0.3; decrease of EIU scores vs vehicle group [2, 4]: 27%; clinical score (mean±SEM) [2, 5]: 3.0±0.2; decrease of EIU scores vs vehicle group [2, 5]: 35%; number of PMN cells [2, 5]: significantly decreased; reduction of number of PMN cells vs vehicle [2, 5]: 88%; clinical score (mean±SEM) [2, 6]: 4.2±0.1; decrease of EIU scores vs vehicle group [2, 6]: 9%; number of PMN cells [2, 6]: significantly decreased; reduction of number of PMN cells vs vehicle [2, 6]: 69%; clinical score (mean±SEM) [2, 7]: 2.8±0.3; decrease of EIU scores vs vehicle group [2, 7]: 40%; IC50 (hJNK3): 102 nM
